Counter-ions that a name gives are not always drawn.
Experiments:
[1] = system: Xanthomonas strain Xcv 135; assay: Biofilm inhibition, crystal violet biofilm attachment assay on PVC microtiter wells; type: cell-based; details: biofilm formation, starting OD600 0.55, 28° C., 6 hours, static
Method: Activity Testing. A standard crystal violet reporter assay is employed to assess the effect of compounds on the formation of biofilms. Among others, the following strains are tested:
Bacteria are allowed to form biofilms in a multi-well plate in the absence or presence of one or more compounds. Planktonic (or free growing) bacteria are then removed, wells washed vigorously, and crystal violet added. Crystal violet stains the remaining bacteria which, following ethanol solubilization, is quantitated by spectrophotometry (A540). Time-dependent and concentration-dependent analysis of each compound are performed.
Activity testing of imidazole library members on Xanthomonas. Biofilm formation on PVC microtiter wells was accomplished using Xanthomonas strains Xcv 135 (known to infect peppers and tomatoes) and Xcv 5 (known to infect tomatoes but not peppers) as models. The Starting Optical Density (OD at 600 nm) for biofilm attachment assay was 0.55, the temperature for this assay was 28° C., the duration of incubation was 6 hours under, and the assay was static.
Biofilm inhibition results are as follows for screens with Xcv 135. The Xcv 5 strain is tested in the same manner.

[2] = system: calcium channels; details: known from literature (Bickmeyer, Toxicon 2005); cited from earlier work
[3] = system: marine α-proteobacterium R. salexigens; details: documented in literature (Yamada et al. 1997); cited from earlier work

In the case of `NC[C@@H]1Cc2nc(N)[nH]c2C[C@H]1CN` (racemic) [Formula (II)(a)(±)], the “% Inhibition at 20 μM (vs. Xcv 135)” value [1] is reported as 0%.

In the case of `Nc1nc2c([nH]1)C[C@@H](CNC(=O)c1cc(Br)c[nH]1)[C@H](CNC(=O)c1cc(Br)c[nH]1)C2` (racemic) [Formula (II)(b)(v)(trans)(±)], the “% Inhibition at 20 μM (vs. Xcv 135)” value [1] is reported as 0%.

For `Nc1nc2c([nH]1)C[C@@H](CNC(=O)c1cc(Br)c(Br)[nH]1)[C@H](CNC(=O)c1cc(Br)c(Br)[nH]1)C2` (racemic) [Formula (II)(b)(vi)(trans)(±)], the “% Inhibition at 20 μM (vs. Xcv 135)” value [1] was 71%.

For `Nc1nc([C@@H]2c3[nH]c(N)nc3C[C@H](CNC(=O)c3cc(Br)c[nH]3)[C@H]2CNC(=O)c2cc(Br)c(Br)[nH]2)c[nH]1` [bromoageliferin], the “activity of calcium channels” value [2] is given as “modulate the activity of calcium channels” and the “anti-biofouling properties: biofilm development in R. salexigens” value [3] is given as “inhibiting biofilm development”.

For `Nc1ncc(/C=C/CNC(=O)c2cc(Br)c(Br)[nH]2)[nH]1` [oroidin, oroidin hydrochloride], the “anti-biofouling properties: biofilm development in R. salexigens” value [3] is listed as “inhibiting biofilm development”.
